# Data taken from patent publication US20060093596A1, “Genomic approach to identification of novel broad-spectrum antimicrobial peptides from bony fish” (priority 2002, published 2006).
# Entries after “also recorded” stand apart in the source; their conditions may differ. Where no end group is shown, it is not given here.
# Columns and labels:
# [1] = tested on: Pseudomonas aeruginosa Z61 (H188, supersusceptible strain); assay type: cell-based; conditions: for Minimal inhibitory concentration, P. aeru Z61: lowest peptide concentration inhibiting growth by at least 50%, Mueller-Hinton broth
# Method: (§3) Most non-fish bacterial strains as well as Candida albicans were grown at 37° C. in Mueller-Hinton Broth (MHB; Difco Laboratories, Detroit), while the fish bacteria were maintained at 16° C. in Tryptic Soy Broth (TSB; Difco, 5g/l NaCl). All strains were stored at −70° C. until they were thawed for use and sub-cultured daily. The following strains, Pseudomonas aeruginosa K799 (parent of Z61), Pseudomonas aeruginosa Z61 (antibiotic supersusceptible), Salmonella typhimurium 14028s (parent of MS7953s), Salmonella typhimurium MS7953s (defensin supersusceptible), as well as Staphylococcus epidermidis (human clinical isolates) and methicillin-resistant Staphylococcus aureus (MRSA; isolated by Dr. A. Chow, University of British Columbia) have been kindly donated by Prof R. E. W. Hancock, University of British Columbia.
# (§4) The activities of the antimicrobial peptides were determined as minimal inhibitory concentrations (MICs) using the microtitre broth dilution method of Amsterdam (Amsterdam, 1996), as modified by Wu and Hancock (1999). Serial dilutions of the peptide were made in water in 96-well polypropylene (Costar, Coming Incorporated, Coming, New York) microtiter plates. Bacteria or C. albicans were grown overnight to mid-logarithmic phase as described above, and diluted to give a final inoculum size of 10^6 cfu/ml. A suspension of bacteria or yeast was added to each well of a 96 well plate and incubated overnight at the appropriate temperature. […] Three repeats of each MIC determination were performed.
# [2] = tested on: Pseudomonas aeruginosa K799 (H187); assay type: cell-based; conditions: for Minimal inhibitory concentration, P. aeru K799: lowest peptide concentration inhibiting growth by at least 50%, Mueller-Hinton broth
# Method: as §3, §4
# [3] = tested on: Candida albicans C627, CALB105; conditions: for Minimal inhibitory concentration, C. alb C627: C627, CALB105
# Method: as §3, §4
# [4] = tested on: Salmonella enterica s. Typhimurium MS4252S (C610, supersusceptible strain); assay type: cell-based; conditions: lowest peptide concentration inhibiting growth by at least 50%; Mueller-Hinton broth
# Method: as §3, §4
# [5] = tested on: Salmonella enterica s. Typhimurium 14028S (C587); assay type: cell-based; conditions: lowest peptide concentration inhibiting growth by at least 50%; Mueller-Hinton broth
# Method: as §3, §4
# [6] = tested on: methicillin-resistant Staphylococcus aureus (MRSA) C623, SAP017; conditions: for Minimal inhibitory concentration, MRSA C623: methicillin-resistant C623, SAP017
# Method: as §3, §4
# [7] = tested on: Escherichia coli UB1005 (C498); assay type: cell-based; conditions: lowest peptide concentration inhibiting growth by at least 50%; Mueller-Hinton broth
# Method: as §3, §4
# [8] = tested on: Staphylococcus epidermidis C621 (clinical isolate)
# Method: as §3, §4
# [9] = tested on: Aeromonas salmonicida 97-4
# Method: (§5) Most non-fish bacterial strains as well as Candida albicans were grown at 37° C. in Mueller-Hinton Broth (MHB; Difco Laboratories, Detroit), while the fish bacteria were maintained at 16° C. in Tryptic Soy Broth (TSB; Difco, 5g/l NaCl).
# (§6) Two field isolates of the salmonid pathogen Aeromonas salmonicida are from the IMB strain collection.
# as §4
# [10] = tested on: methicillin-resistant Staphylococcus aureus (MRSA); assay: Killing assay (survival at MIC and ten times MIC); assay type: cell-based; conditions: Mueller-Hinton broth, FIG. 13
# Method: (§1) Survival of bacteria and C. albicans upon exposure to selected peptides applied at their minimal inhibitory concentrations (MICs) and ten times their MICs was measured using standard methodology. The test organisms were grown in MHB and exposed to the peptides. At the specified time intervals equal aliquots were removed from the cultures, plated on MHB plates, and the resulting colonies were counted. Percentage survival was plotted against time on a logarithmic scale. Two repeats of each experiment were performed.
# (§2) FIG. 13 describes Survival of a Gram-positive bacterium (methicillin-resistant Staphylococcus aureus—MRSA) upon exposure to NRC-15 at its minimal inhibitory concentration (MIC) and ten times its MIC. S. aureus was grown in Mueller-Hinton broth and exposed to NRC-15 at its MIC and ten times its MIC. At the specified intervals equal aliquots were removed from the culture, plated on MHB plates, and the resulting colonies were counted.
# [11] = tested on: Aeromonas salmonicida 99-1, A449
# Method: as §5, §6, §4
# [12] = tested on: Escherichia coli DC2 (C500, outer membrane-permeable mutant); assay type: cell-based; conditions: lowest peptide concentration inhibiting growth by at least 50%; Mueller-Hinton broth
# Method: as §3, §4
# [13] = tested on: bacterial pathogens and C. albicans; assay: Spectrum of antimicrobial activity (MIC panel, overall); assay type: cell-based; conditions: summary of MIC results against bacteria and C. albicans
# Method: Three repeats of each MIC determination were performed.
# The minimal inhibitory concentrations of the chemically produced peptides against a wide range of baterial pathogens and C. albicans were determined and are shown in Table 9.
# [14] = tested on: Escherichia coli C786, CGSC4908; assay type: cell-based; conditions: lowest peptide concentration inhibiting growth by at least 50%; supplemented Mueller-Hinton broth
# Method: All strains were stored at −70° C. until they were thawed for use and sub-cultured daily.
# Escherichia coli strain CGSC 4908 (his-67, thyA43, pyr-37), auxotrophic for thymidine, uridine, and L-histidine (Cohen et al., 1963) was kindly supplied, free of charge, by the E.coli Genetic Stock Centre (Yale University, New Haven, Conn.). MHB supplemented with 5 mg/L thymidine, 10 mg/L uridine and 20 mg/L L-histidine (Sigma Chemical Co., St. Louis, Mo.), was used to grow E.coli CGSC 4908 unless otherwise specified.
# The activities of the antimicrobial peptides were determined as minimal inhibitory concentrations (MICs) using the microtitre broth dilution method of Amsterdam (Amsterdam, 1996), as modified by Wu and Hancock (1999). Serial dilutions of the peptide were made in water in 96-well polypropylene (Costar, Coming Incorporated, Coming, New York) microtiter plates. Bacteria or C. albicans were grown overnight to mid-logarithmic phase as described above, and diluted to give a final inoculum size of 10^6 cfu/ml. A suspension of bacteria or yeast was added to each well of a 96 well plate and incubated overnight at the appropriate temperature. In the case of E. coli CGSC 4908, supplemented MHB was used. […] Three repeats of each MIC determination were performed.
# Candida albicans = assay: Killing assay (survival at MIC and ten times MIC); assay type: cell-based; conditions: Mueller-Hinton broth, FIG. 15
# Method: as §1
# as §2, with “15” for “13”, “yeast (Candida albicans)” for “Gram-positive bacterium (methicillin-resistant Staphylococcus aureus—MRSA)”, “NRC-12” for “NRC-15”, “C. albicans” for “S. aureus”
# P. aeruginosa K799 = assay: Killing assay in culture supplemented with NaCl; assay type: cell-based, Pseudomonas aeruginosa; conditions: culture supplemented with 150 mM NaCl; 4 μg/ml (MIC) or 40 μg/ml (10×MIC); FIG. 25
# Method: as §1
# Peptides of the invention can be used at a range of pH's, salt concentrations, and temperatures. These peptides are useful against pathogens grown in biofilms or under any other conditions for pathogen growth or culture. See for example FIG. 25 in which the ability of NRC-13 to kill P. aeruginosa K799 in […] is shown. NRC-13 was added to a culture of P. aeruginosa supplemented with 150 mM NaCl to a final concentration of 4 μg/ml (□) or 40 μg/ml (Δ), representing the MIC and 10×MIC, respectively. A control with no peptide added is also shown (♦).
# Pseudomonas aeruginosa = assay: Killing assay (survival at MIC and ten times MIC); assay type: cell-based
# Method: as §1
# as §2, with “14” for “13”, “Gram-negative” for “Gram-positive”, “(Pseudomonas aeruginosa)” for “(methicillin-resistant Staphylococcus aureus—MRSA)”, “NRC-13” for “NRC-15”, “P. aeruginosa” for “S. aureus”
# Vibrio anguillarum = conditions: Coho salmon; Jia et al. 2000; cited from earlier work
substance,measurement,setting,value
GFWGKLFKLGLHGIGLLHLHL-NH2 [NRC-15],"Minimal inhibitory concentration, P. aeru Z61",[1],4 µg/mL
same,"Minimal inhibitory concentration, P. aeru K799",[2],8 µg/mL
same,"Minimal inhibitory concentration, C. alb C627",[3],16 µg/mL
same,"Minimal inhibitory concentration, S. typh MS4252s",[4],4 µg/mL
same,"Minimal inhibitory concentration, S. typh 14028s",[5],16 µg/mL
same,concentration inhibiting the growth of methicillin-resistant S. aureus,[6],4 µg/mL
same,"Minimal inhibitory concentration, MRSA C623",[6],4 µg/mL
same,"Minimal inhibitory concentration, E. coli UB1005",[7],8 µg/mL
same,"Minimal inhibitory concentration, S. epi C621",[8],4 µg/mL
same,"Minimal inhibitory concentration, A. sal 97-4",[9],16 µg/mL
same,ability to kill methicillin-resistant S. aureus,[10],ability to kill
same,"Minimal inhibitory concentration, A. sal 99-1",[11],8 µg/mL
same,"Minimal inhibitory concentration, E. coli DC2",[12],8 µg/mL
same,"antimicrobial activity, overall (in words)",[13],broad spectrum of antimicrobial activity
same,"Minimal inhibitory concentration, E. coli C786",[14],8 µg/mL
GWKKWFNRAKKVGKTVGGLAVDHYL-NH2 [NRC-12],"Minimal inhibitory concentration, P. aeru Z61",[1],1 µg/mL
same,"Minimal inhibitory concentration, P. aeru K799",[2],4 µg/mL
same,"Minimal inhibitory concentration, C. alb C627",[3],4 µg/mL
same,"Minimal inhibitory concentration, S. typh MS4252s",[4],2 µg/mL
same,"Minimal inhibitory concentration, S. typh 14028s",[5],8 µg/mL
same,"Minimal inhibitory concentration, MRSA C623",[6],16 µg/mL
same,"Minimal inhibitory concentration, E. coli UB1005",[7],8 µg/mL
same,ability to kill C. albicans,Candida albicans,ability to kill
same,"Minimal inhibitory concentration, S. epi C621",[8],8 µg/mL
same,"Minimal inhibitory concentration, A. sal 97-4",[9],2 µg/mL
same,"Minimal inhibitory concentration, A. sal 99-1",[11],2 µg/mL
same,"Minimal inhibitory concentration, E. coli DC2",[12],2 µg/mL
same,"antimicrobial activity, overall (in words)",[13],broad spectrum of antimicrobial activity
same,"Minimal inhibitory concentration, E. coli C786",[14],2 µg/mL
GWRTLLKKAEVKTVGKLALKHYL-NH2 [NRC-13],"Minimal inhibitory concentration, P. aeru Z61",[1],1 µg/mL
same,concentration inhibiting the growth of P. aeruginosa,"[1]; strain not stated, value matches Z61 of Table 8",1 µg/mL
same,ability to kill P. aeruginosa K799 in NaCl,P. aeruginosa K799,kill
same,MIC against P. aeruginosa K799,[2]; text statement to FIG. 25,4 µg/mL
same,concentration inhibiting the growth of C. albicans,[3],4 µg/mL
same,"Minimal inhibitory concentration, C. alb C627",[3],4 µg/mL
same,"Minimal inhibitory concentration, S. typh MS4252s",[4],2 µg/mL
same,"Minimal inhibitory concentration, S. typh 14028s",[5],8 µg/mL
same,concentration inhibiting the growth of methicillin-resistant S. aureus,[6],4 µg/mL
same,"Minimal inhibitory concentration, MRSA C623",[6],4 µg/mL
same,"Minimal inhibitory concentration, E. coli UB1005",[7],4 µg/mL
same,"Minimal inhibitory concentration, S. epi C621",[8],4 µg/mL
same,"Minimal inhibitory concentration, A. sal 97-4",[9],2 µg/mL
same,concentration inhibiting the growth of A. salmonicida,"[9]; strain not stated, value matches 97-4 of Table 8",2 µg/mL
same,"Minimal inhibitory concentration, A. sal 99-1",[11],4 µg/mL
same,"Minimal inhibitory concentration, E. coli DC2",[12],2 µg/mL
same,"antimicrobial activity, overall (in words)",[13],broad spectrum of antimicrobial activity; also recorded: highly active
same,"Minimal inhibitory concentration, E. coli C786",[14],2 µg/mL
same,ability to kill P. aeruginosa,"Pseudomonas aeruginosa; at MIC and ten times MIC, Mueller-Hinton broth, FIG. 14",ability to kill
same,concentration killing P. aeruginosa,Pseudomonas aeruginosa; strain not stated,1 µg/mL
WLRRIGKGVKIIGGAALDHL-NH2 [NRC-2],"Minimal inhibitory concentration, P. aeru Z61",[1],32 µg/mL
same,"Minimal inhibitory concentration, P. aeru K799",[2],64 µg/mL
same,"Minimal inhibitory concentration, C. alb C627",[3],>64 µg/mL
same,"Minimal inhibitory concentration, S. typh MS4252s",[4],64 µg/mL
same,"Minimal inhibitory concentration, S. typh 14028s",[5],>64 µg/mL
same,"Minimal inhibitory concentration, MRSA C623",[6],>64 µg/mL
same,"Minimal inhibitory concentration, E. coli UB1005",[7],64 µg/mL
same,"Minimal inhibitory concentration, S. epi C621",[8],>64 µg/mL
same,"Minimal inhibitory concentration, A. sal 97-4",[9],128 µg/mL
same,"Minimal inhibitory concentration, A. sal 99-1",[11],>128 µg/mL
same,"Minimal inhibitory concentration, E. coli DC2",[12],64 µg/mL
same,"antimicrobial activity, overall (in words)",[13],only marginally active
same,"Minimal inhibitory concentration, E. coli C786",[14],64 µg/mL
"pleurocidin (GWGSFFKKAAHVGKHVGKAALTHYL-NH2; UniProt P81941 23-47, looked up) [Synthetic pleurocidin, Synthetic pleurocidin identical to the central portion of WF2 (Jia et al. 2000)]",protection against infection by Vibrio anguillarum,Vibrio anguillarum,protect Coho salmon against infection
